In ChEMBL document CHEMBL3785021, “Isatin analogs as novel inhibitors of Candida spp. β-carbonic anhydrase enzymes” (Bioorg Med Chem, 2016):

Assays:
[1] = biological target: T1, Carbonic anhydrase (Candida albicans (strain SC5314 / ATCC MYA-2876) (Yeast), UniProt Q5AJ71); experiment: Inhibition of recombinant Candida albicans beta carbonic anhydrase NCE103 expressed in Escherichia coli preincubated for 15 mins by stopped-flow CO2 hydration assay
T1 sequence (Q5AJ71 whole entry): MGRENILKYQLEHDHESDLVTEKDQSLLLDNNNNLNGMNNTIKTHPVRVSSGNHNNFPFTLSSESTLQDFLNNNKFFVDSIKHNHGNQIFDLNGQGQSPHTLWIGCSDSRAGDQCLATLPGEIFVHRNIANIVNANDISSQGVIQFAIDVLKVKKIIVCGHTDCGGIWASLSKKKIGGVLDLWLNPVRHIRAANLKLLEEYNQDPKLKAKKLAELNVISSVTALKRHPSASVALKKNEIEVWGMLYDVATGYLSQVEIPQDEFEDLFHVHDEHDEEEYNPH

[2] = biological target: Carbonic anhydrase 2 (Homo sapiens, UniProt P00918); experiment: Inhibition of recombinant human carbonic anhydrase 2 expressed in Escherichia coli preincubated for 15 mins by stopped-flow CO2 hydration assay
[3] = biological target: T2, Carbonic anhydrase (Candida glabrata CBS 138, UniProt Q6FTL6); experiment: Inhibition of recombinant Candida glabrata beta carbonic anhydrase NCE103 expressed in Escherichia coli preincubated for 15 mins by stopped-flow CO2 hydration assay; set-up: species or system Nakaseomyces glabratus
T2 sequence (Q6FTL6 whole entry): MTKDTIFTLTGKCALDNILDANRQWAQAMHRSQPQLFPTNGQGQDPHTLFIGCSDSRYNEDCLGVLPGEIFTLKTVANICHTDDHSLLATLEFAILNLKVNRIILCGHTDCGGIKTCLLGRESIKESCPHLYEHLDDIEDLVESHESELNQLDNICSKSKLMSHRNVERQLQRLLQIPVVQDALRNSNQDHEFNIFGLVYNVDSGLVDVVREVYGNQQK

[4] = biological target: Carbonic anhydrase 1 (Homo sapiens, UniProt P00915); experiment: Inhibition of recombinant human carbonic anhydrase 1 expressed in Escherichia coli preincubated for 15 mins by stopped-flow CO2 hydration assay
Sequence of Carbonic anhydrase 1 (P00915 whole entry): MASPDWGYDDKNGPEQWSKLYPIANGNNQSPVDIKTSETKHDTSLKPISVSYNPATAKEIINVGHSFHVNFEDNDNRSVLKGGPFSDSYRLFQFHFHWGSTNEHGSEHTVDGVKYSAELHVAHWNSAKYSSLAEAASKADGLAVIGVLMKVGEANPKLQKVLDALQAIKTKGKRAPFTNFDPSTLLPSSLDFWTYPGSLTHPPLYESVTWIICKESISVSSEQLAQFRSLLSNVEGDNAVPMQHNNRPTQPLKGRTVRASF

Structure (SMILES)	Ki [1]	Ki [2]	Ki [3]	Ki [4]
Cc1ccc2c(c1)/C(=N/c1cccc(S(N)(=O)=O)c1)C(=O)N2	157 nM	565 nM	45.9 nM	–
NS(=O)(=O)c1ccccc1/N=C1\C(=O)Nc2ccc(OC(F)(F)F)cc21	295 nM	–	154 nM	–
NS(=O)(=O)c1ccc(/N=C2\C(=O)Nc3ccc([N+](=O)[O-])cc32)cc1	34.1 nM	–	22.8 nM	–
NS(=O)(=O)c1ccccc1/N=C1\C(=O)Nc2ccc(F)cc21	91.5 nM	–	55.4 nM	–
CN1C(=O)/C(=N\c2ccc(S(N)(=O)=O)cc2)c2cc([N+](=O)[O-])ccc21	21.7 nM	–	16.3 nM	–
NS(=O)(=O)c1ccccc1/N=C1\C(=O)Nc2ccc(Cl)cc21	65.7 nM	–	58.9 nM	–
Cc1ccc2c(c1)/C(=N/c1ccc(S(N)(=O)=O)cc1)C(=O)N2C	84.1 nM	–	35.3 nM	–
Cc1ccc2c(c1)/C(=N/c1ccc(S(N)(=O)=O)cc1)C(=O)N2	128 nM	–	29.7 nM	–
Cc1ccc2c(c1)/C(=N/c1ccccc1S(N)(=O)=O)C(=O)N2	139 nM	–	62.3 nM	–
NS(=O)(=O)c1ccc(/N=C2\C(=O)Nc3ccc(Cl)cc32)cc1	83.3 nM	–	38.2 nM	–
NS(=O)(=O)c1cccc(/N=C2\C(=O)Nc3ccc(Cl)cc32)c1	54.8 nM	–	50.1 nM	–
NS(=O)(=O)c1cccc(/N=C2\C(=O)Nc3ccc([N+](=O)[O-])cc32)c1	35.7 nM	–	23.1 nM	–
NS(=O)(=O)c1ccc(/N=C2\C(=O)Nc3ccc(F)cc32)cc1	85.2 nM	–	21.6 nM	–
CN1C(=O)/C(=N\c2ccc(S(N)(=O)=O)cc2)c2cc(Br)ccc21	156 nM	–	37.1 nM	–
NS(=O)(=O)c1cccc(/N=C2\C(=O)Nc3ccc(F)cc32)c1	61.3 nM	–	45.1 nM	–
CN1C(=O)/C(=N\c2ccc(S(N)(=O)=O)cc2)c2cc(Cl)ccc21	178 nM	–	36.5 nM	–
CN1C(=O)/C(=N\c2ccc(S(N)(=O)=O)cc2)c2cc(F)ccc21	79.3 nM	–	32.4 nM	–
NS(=O)(=O)c1ccc(N=C2C(=O)Nc3ccccc32)cc1	86.5 nM	523 nM	48.4 nM	422 nM
NS(=O)(=O)c1ccc(/N=C2\C(=O)Nc3ccc(OC(F)(F)F)cc32)cc1	53.6 nM	–	45.1 nM	–
NS(=O)(=O)c1ccccc1/N=C1\C(=O)Nc2ccccc21	136 nM	–	66.5 nM	–
NS(=O)(=O)c1cccc(/N=C2\C(=O)Nc3ccc(OC(F)(F)F)cc32)c1	88 nM	–	53.5 nM	–
NS(=O)(=O)c1cccc(/N=C2\C(=O)Nc3ccccc32)c1	98.1 nM	–	85.1 nM	–
CN1C(=O)/C(=N\c2ccc(S(N)(=O)=O)cc2)c2ccccc21	75.9 nM	–	39.7 nM	–
